The test addresses human NK1R (Homo sapiens, UniProt P25103). Nature of the test: biochemical. In kind it is binding. The conditions noted are these: for pIC50: displacement of 125I-substance P, human NK1R in COS or CHO cells. On the procedure:
To express the cloned human neurokinin-1-receotor (NK1R) transiently in COS, the cDNA for the human NK1R was cloned into the expression vector pCDM9 which was derived from pCDM8 (INVITROGEN) by inserting the ampicillin resistance gene (nucleotide 1973 to 2964 from BLUESCRIPT SK+ (trademark, […], La Jolla, Calif., U.S.A.)) into the Sac II site. Transfection of 20 ug of the plasmid DNA into 10 million COS cells was achieved by electroporation in 800 μl of transfection buffer (135 mM NaCl, 1.2 mM CaCl2, 1.2 mM MgCl2, 2.4 mM K2 HPO4, 0.6 mM KH2 PO4, 10 mM glucose, 10 mM N-2-hydroxyethyl-piperazine-N'-2-ethane sulphonic acid (HEPES) pH 7.4) at 260 V and 950 μF using the IBI GENEZAPPER (trademark IBI, New Haven, Conn., U.S.A.). The cells were incubated in 10% fetal calf serum, 2 mM glutamine, 100 U/ml penicillin-streptomycin, and 90% DMEM media (GIBCO, Grand Island, N.Y., U.S.A.) in 5% CO2 at 37° C. for three days before the binding assay.
To establish a stable cell line expressing cloned human NK1R, the cDNA was subcloned into the vector pRcCMV (INVITROGEN). Transfection of 20 ug of the plasmid DNA into CHO cells was achieved by electroporation in 800 μl of transfection buffer supplemented with 0.625 mg/ml Herring sperm DNA at 300 V and 950 μF using the IBI GENEZAPPER (IBI). The transfected cells were incubated. in CHO media [10% fetal calf serum, 100 U/ml penicillin-streptomycin, 2 mM glutamine, 1/500 hypoxanthinethymidine (ATCC), 90% IMDM media (JRH BIOSCIENCES, Lenexa, Kans., U.S.A.), 0.7 mg/ml G418 (GIBCO)] in 5% CO2 at 37° C. until colonies were visible. Each colony was separated and propagated. The cell clone with the highest number of human NK1R was selected for subsequent applications such as drug screening.
The binding assay of human NK1R expressed in either COS or CHO cells is based on the use of ^125 I-substance P (^125 I-SP, from DU PONT, Boston, Mass.) as a radioactively labeled ligand which competes with unlabeled substance P or any other ligand for binding to the human NK1R. […] The tubes were incubated at 4° C. or at room temperature for 1 hour with gentle shaking. The bound radioactivity was separated from unbound radioactivity by GF/C filter (BRANDEL, Gaithersburg, Md.) which was prewetted with 0.1% polyethylenimine. The filter was washed with 3 ml of wash buffer (50 mM Tris pH 7.5, 5 mM MnCl2, 150 mM NaCl) three times and its radioactivity was determined by gamma counter.

pIC50: −log10 of the molar value. Where a name gives a salt, the structure may show the parent alone.

The values that follow come from patent US5629347A, “Aromatic compounds, pharmaceutical compositions containing them and their use in therapy” (Merck Sharp & Dohme Ltd., priority 1991, dated 1997).

Chain of human NK1R (P25103 whole entry): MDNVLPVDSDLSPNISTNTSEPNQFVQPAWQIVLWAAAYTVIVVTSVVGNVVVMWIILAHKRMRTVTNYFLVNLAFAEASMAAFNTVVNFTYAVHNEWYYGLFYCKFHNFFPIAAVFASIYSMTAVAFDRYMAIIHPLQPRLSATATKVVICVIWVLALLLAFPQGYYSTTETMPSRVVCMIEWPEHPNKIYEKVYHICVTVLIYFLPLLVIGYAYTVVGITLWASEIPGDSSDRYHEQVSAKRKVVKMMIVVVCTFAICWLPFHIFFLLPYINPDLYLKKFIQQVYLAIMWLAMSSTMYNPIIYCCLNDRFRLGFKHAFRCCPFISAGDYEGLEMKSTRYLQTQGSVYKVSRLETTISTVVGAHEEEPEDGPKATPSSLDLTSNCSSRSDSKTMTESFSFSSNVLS

What is called pIC50 is the negative decadic logarithm of the IC50, by convention in mol/L. Take `CNC(=O)CN(C)C(COCc1cc(C(F)(F)F)cc(C(F)(F)F)c1)C(c1ccccc1)c1ccccc1` (centres unmarked) [Example 54, 1-((3,5-Bis(trifluoromethyl)phenyl)methyloxy)-2-((N-((methylcarboxamido)methyl)-N-methyl)amino)-3,3-diphenylpropane monohydrate]: the pIC50 was 8.70.

For `N#Cc1cccc(COCC(N)C(c2ccccc2)c2ccccc2)c1` (centres unmarked) [Example 29, 2-Ammoninm-1-((3-cyanophenyl)methyloxy)-3,3-diphenylpropane oxalate salt], the inhibition at 1 µM (1 h, @ 1 μM, read-out: Substance P antagonism (%)) came out at 48%.

For the compound `N#CCNC(COCc1cc(C(F)(F)F)cc(C(F)(F)F)c1)C(c1ccccc1)c1ccccc1` (centres unmarked) [Example 34, 1-((3,5-Bis(trifluoromethyl)phenyl)methyloxy)-2-(cyanomethyl)amino-3,3-diphenylpropane], the negative logarithm of the IC50 (pIC50) was 8.00.

Consider `NC(=O)CN[C@H](COCc1cc(C(F)(F)F)cc(C(F)(F)F)c1)C(c1ccccc1)c1ccccc1` [Example 57, (S)-1-((3',5'-Bis(trifluoromethyl)phenyl)methyloxy)-2-(((carboxamido)methyl)ammonium)-3,3-diphenylpropane oxalate salt], for which the pIC50 is 9.10.

Consider `Cc1cc(C)cc(COCC(C(c2ccccc2)c2ccccc2)[N+](C)(C)C)c1` (centres unmarked) [Example 12, 1-((3,5-Dimethylphenyl)methyloxy)-3,3-diphenyl-2-(N,N,N-trimethylammonium)propane iodide salt], for which the pIC50 is 7.72.

In turn, `NC(COCc1cccc([N+](=O)[O-])c1)C(c1ccccc1)c1ccccc1` (centres unmarked) [Example 24, 2-Ammonium-1-((3-nitrophenyl)methyloxy)-3,3-diphenylpropane oxalate salt] gave a pIC50 of 6.40.

As to `Cc1cc(C)cc(COC(=O)C(N)C(c2ccccc2)c2ccccc2)c1` (centres unmarked) [Example 5, (3,5-Dimethylphenyl)methyl 2-ammonium-3,3-diphenylpropanoate tosylate salt], the pIC50 is 6.80.

Compound `CN(C)CCNC(=O)CNC(COCc1cc(C(F)(F)F)cc(C(F)(F)F)c1)C(c1ccccc1)c1ccccc1` (centres unmarked) [Example 52, N-(1-((3',5'-Bis(trifluoromethyl)phenyl)methyloxy)-3,3-diphenylprop-2-yl)glycine N',N'-dimethylethylamide bis oxalate salt] showed a pIC50 of 9.00.

For `Cc1cc(Br)cc(COCC(N)C(c2ccccc2)c2ccccc2)c1` (centres unmarked) [Example 33, 2-Ammonium-1-((3-bromo-5-methylphenyl)methyloxy)-3,3-diphenylpropane oxalate salt], the pIC50 is 7.70.

The compound `CN(C)CC(=O)NC(COCc1cc(C(F)(F)F)cc(C(F)(F)F)c1)C(c1ccccc1)c1ccccc1` (centres unmarked) [Example 62, 2-(2-(Dimethylamino)acetamido)-1-((3,5-bis(trifluoromethyl)phenyl)methyloxy)-3,3-diphenylpropane] gave a pIC50 of 6.70.

Compound `O=C1CN(C(COCc2cc(C(F)(F)F)cc(C(F)(F)F)c2)C(c2ccccc2)c2ccccc2)CCN1` (centres unmarked) [Example 66, 4-((1-((3,5-Bis(trifluoromethyl)phenyl)methyloxy)-3,3-diphenyl)prop-2-yl)piperazinium-2-one hemi oxalate salt] showed a negative logarithm of the IC50 (pIC50) of 8.40.

Regarding `Cc1ccc(C)c(COCC(N)C(c2ccccc2)c2ccccc2)c1` (centres unmarked) [Example 28, 2-Ammonium-1-((2,5-dimethylphenyl)methyloxy)-3,3-diphenylpropane oxalate salt], the pIC50 was 6.52.

For the compound `Cc1cc(C)cc(COCC(NCC(=O)NCc2ccccc2)C(c2ccccc2)c2ccccc2)c1` (centres unmarked) [Example 47, N-(1-(((3',5'-Dimethyl)phenyl)methyloxy)-3,3-diphenylprop-2-yl)glycylbenzamide oxalate salt], the pIC50 is 7.82.

Consider `NC(COCc1cc(Cl)cc(Cl)c1)C(c1ccccc1)c1ccccc1` (centres unmarked) [Example 18, 2-Ammouinm-1-((3,5-dichlorophenyl)methyloxy)-3,3-diphenylpropane tosylate salt], for which the negative-log IC50 (pIC50) is 7.66.

As to `COc1cccc(C(Cc2ccccc2)C(N)COCc2cc(C(F)(F)F)cc(C(F)(F)F)c2)c1` (mixture of isomers) [70 (mixture of diastereomers), 2-Amino-1-((3,5-bis(trifluoromethyl)phenyl)methyloxy)-3-(3-methoxyphenyl)-4-phenylbutane], the pIC50 was 6.80.

In the case of `O=C(Nc1ccccc1)NC(COCc1cc(C(F)(F)F)cc(C(F)(F)F)c1)C(c1ccccc1)c1ccccc1` (centres unmarked) [Example 43, N-(1-((3',5'-Bis(trifluoromethyl)phenyl)methyloxy)-3,3-diphenylprop-2-yl)-N'-phenylurea], the inhibition at 0.3 µM (1 h, @ 03 μM, read-out: Substance P antagonism (%)) worked out at 50%.

Consider `O=C(O)CNC(COCc1cc(C(F)(F)F)cc(C(F)(F)F)c1)C(c1ccccc1)c1ccccc1` (centres unmarked) [Example 44, N-(1-((3',5'-Bis(trifluoromethyl)phenyl)methyloxy)-3,3-diphenylprop-2-yl)glycine], for which the negative-log IC50 (pIC50) was 7.82.

`Cc1cc(C)cc(COCC(NCC(=O)NCC(N)=O)C(c2ccccc2)c2ccccc2)c1` (centres unmarked) [Example 46, N-(1-(((3',5'-Dimethyl)phenyl)methyloxy)-3,3-diphenylprop-2-yl)glycylglycine amide] had a pIC50 of 8.40.

`Cc1cc(C)cc(COC[C@H](C(c2ccccc2)c2ccccc2)N(C)C)c1` [Example 55, (S)-2-Dimethylammonium-1-((3,5-dimethylphenyl)methyloxy)-3,3-diphenylpropane Oxalate salt] showed a pIC50 of 8.70.

For the compound `Cc1cc(C)cc(COCC(C(c2ccccc2)c2ccccc2)N(C)C)c1` (centres unmarked) [Example 2, 2-Dimethylammonium-1-((3,5-dimethylphenyl)methyloxy)-3,3-diphenylpropane tosylate salt], the pIC50 is 8.62.

`CC(NC(COCc1cc(C(F)(F)F)cc(C(F)(F)F)c1)C(c1ccccc1)c1ccccc1)C(N)=O` (single isomer, unassigned) [41 (diastereomer B), 1-((3',5'-Bis(trifluoromethyl)phenyl)methyloxy)-2-((1-(carboxamido)ethyl)ammonium)-3,3-diphenylpropane oxalate salt] gave a pIC50 of 9.30.

For the compound `Cc1cc(C)cc(COC[C@@H](C(c2ccccc2)c2ccccc2)N(C)C)c1` [Example 56, (R)-2-Dimethylammonium-1-((3,5-dimethylphenyl)methyloxy)-3,3-diphenylpropane tosylate salt], the pIC50 was 7.74.

The compound `Cc1cc(CNCC(N)C(c2ccccc2)c2ccccc2)cc(C(F)(F)F)c1` (centres unmarked) [Example 68, 2-Ammonium-3,3-diphenyl-1-((3-methyl, 5-trifluoromethyl)phenyl)methylamino)propane oxalate salt] had a pIC50 of 6.40.

Take `NCC(=O)NC(COCc1cc(C(F)(F)F)cc(C(F)(F)F)c1)C(c1ccccc1)c1ccccc1` (centres unmarked) [Example 61, 2-(2-Ammoniumacetamido)-1-((3,5-bis(trifluoromethyl)phenyl)methyloxy)-3,3-diphenylpropane oxalate salt hemihydrate]: the negative-log IC50 (pIC50) is 7.52.

The compound `COc1ccccc1CNC(=O)C(N)C(c1ccccc1)c1ccccc1` (centres unmarked) [Example 4, 2-Ammonium-3,3-diphenylpropanoyl-(2-methoxyphenyl)methylamide tosylate salt] gave a pIC50 of 6.15.

Compound `CN(C)C(=O)CNC(COCc1cc(C(F)(F)F)cc(C(F)(F)F)c1)C(c1ccccc1)c1ccccc1` (centres unmarked) [Example 48, N-(1-((3',5'-Bis(trifluoromethyl)phenyl)methyloxy)-3,3-diphenylprop-2-yl)glycine dimethylamide hydrochloride salt] had a pIC50 of 8.00.

In turn, `NC(C(=O)NCc1cc(C(F)(F)F)cc(C(F)(F)F)c1)C(c1ccccc1)c1ccccc1` (centres unmarked) [Example 67, 2-Amino-3,3-diphenyl-N-((3,5-bis(trifluoromethyl)phenyl)methyl)propionamide] gave a negative logarithm of the IC50 (pIC50) of 6.66.

As to `Cc1cc(C)cc(COCC(NCCO)C(c2ccccc2)c2ccccc2)c1` (centres unmarked) [Example 22, 2-(N-(2-Hydroxyethyl)ammonium)-1-((3,5-dimethylphenyl)methyloxy)-3,3-diphenylpropane oxalate salt], the negative-log IC50 (pIC50) was 7.35.

`Cc1cc(C)cc(COCC(C(c2ccccc2)c2ccccc2)N2CCCC2)c1` (centres unmarked) [Example 13, 3,3-Diphenyl-1-((3,5-dimethylphenyl)methyloxy)-2-(1-pyrrolidinium)propane tosylate salt] had a pIC50 of 7.70.
